Reference: US6787525B1, “Glyceryl nucleotides, method for the production thereof and their use” (priority 1998, dated 2004)

Tests used:
CCRF-CEM = experiment: In vitro cytostatic effect (SRB): CCRF-CEM, Leukemia; details: for CC50: read-out: LC50, 48-hour incubation
SF-295 = experiment: In vitro cytostatic effect (SRB): SF-295, Cancer of the central nervous system; details: for GI50 / TGI: 48-hour incubation; for CC50: read-out: LC50, 48-hour incubation
K-562 = experiment: In vitro cytostatic effect (SRB): K-562, Leukemia; details: for GI50 / TGI: 48-hour incubation; for CC50: read-out: LC50, 48-hour incubation
UACC-62 = experiment: In vitro cytostatic effect (SRB): UACC-62, Melanoma; details: for GI50 / TGI: 48-hour incubation; for CC50: read-out: LC50, 48-hour incubation
OVCAR-8 = experiment: In vitro cytostatic effect (SRB): OVCAR-8, Ovarian cancer; details: for GI50 / TGI: 48-hour incubation; for CC50: read-out: LC50, 48-hour incubation
MALME-3M = experiment: In vitro cytostatic effect (SRB): MALME-3M, Melanoma; details: for GI50 / TGI: 48-hour incubation; for CC50: read-out: LC50, 48-hour incubation
SNB-19 = experiment: In vitro cytostatic effect (SRB): SNB-19, Cancer of the central nervous system; details: for GI50 / TGI: 48-hour incubation; for CC50: read-out: LC50, 48-hour incubation
BT-549 = experiment: In vitro cytostatic effect (SRB): BT-549, Breast cancer; details: for GI50 / TGI: 48-hour incubation; for CC50: read-out: LC50, 48-hour incubation
NCI-H522 = experiment: In vitro cytostatic effect (SRB): NCI-H522, Lung cancer; details: for GI50 / TGI: 48-hour incubation; for CC50: read-out: LC50, 48-hour incubation
HOP-62 = experiment: In vitro cytostatic effect (SRB): HOP-62, Lung cancer; details: for GI50 / TGI: 48-hour incubation; for CC50: read-out: LC50, 48-hour incubation
SK-MEL-5 = experiment: In vitro cytostatic effect (SRB): SK-MEL-5, Melanoma; details: for GI50 / TGI: 48-hour incubation; for CC50: read-out: LC50, 48-hour incubation
HCT-15 = experiment: In vitro cytostatic effect (SRB): HCT-15, Intestinal cancer; details: for GI50 / TGI: 48-hour incubation
CAKI-1 = experiment: In vitro cytostatic effect (SRB): CAKI-1, Kidney cancer; details: for GI50 / TGI: 48-hour incubation; for CC50: read-out: LC50, 48-hour incubation
TK-10 = experiment: In vitro cytostatic effect (SRB): TK-10, Kidney cancer; details: for GI50 / TGI: 48-hour incubation; for CC50: read-out: LC50, 48-hour incubation
PC-3 = experiment: In vitro cytostatic effect (SRB): PC-3, Prostate cancer; details: for GI50 / TGI: 48-hour incubation; for CC50: read-out: LC50, 48-hour incubation
DU-145 = experiment: In vitro cytostatic effect (SRB): DU-145, Prostate cancer; details: for GI50 / TGI: 48-hour incubation; for CC50: read-out: LC50, 48-hour incubation
768-0 = experiment: In vitro cytostatic effect (SRB): 768-0, Kidney cancer; details: for GI50 / TGI: 48-hour incubation; for CC50: read-out: LC50, 48-hour incubation
COLO205 = experiment: In vitro cytostatic effect (SRB): COLO205, Intestinal cancer; details: for GI50 / TGI: 48-hour incubation; for CC50: read-out: LC50, 48-hour incubation
RXF 393 = experiment: In vitro cytostatic effect (SRB): RXF 393, Kidney cancer; details: for GI50 / TGI: 48-hour incubation; for CC50: read-out: LC50, 48-hour incubation
HL-60(TB) = details: for GI50 / TGI: Leukemia, 48-hour incubation; for CC50: read-out: LC50, Leukemia, 48-hour incubation
EKVX = experiment: In vitro cytostatic effect (SRB): EKVX, Lung cancer; details: for GI50 / TGI: 48-hour incubation
SW-620 = experiment: In vitro cytostatic effect (SRB): SW-620, Intestinal cancer; details: for GI50 / TGI: 48-hour incubation; for CC50: read-out: LC50, 48-hour incubation
OVCAR-3 = experiment: In vitro cytostatic effect (SRB): OVCAR-3, Ovarian cancer; details: for GI50 / TGI: 48-hour incubation; for CC50: read-out: LC50, 48-hour incubation
U251 = experiment: In vitro cytostatic effect (SRB): U251, Cancer of the central nervous system; details: for GI50 / TGI: 48-hour incubation; for CC50: read-out: LC50, 48-hour incubation
MOLT-4 = experiment: In vitro cytostatic effect (SRB): MOLT-4, Leukemia; details: for GI50 / TGI: 48-hour incubation; for CC50: read-out: LC50, 48-hour incubation
NCI/ADR-RES = experiment: In vitro cytostatic effect (SRB): NCI/ADR-RES, Breast cancer; details: for CC50: read-out: LC50, 48-hour incubation
NCI-H460 = experiment: In vitro cytostatic effect (SRB): NCI-H460, Lung cancer; details: for GI50 / TGI: 48-hour incubation; for CC50: read-out: LC50, 48-hour incubation
HCT-116 = experiment: In vitro cytostatic effect (SRB): HCT-116, Intestinal cancer; details: for GI50 / TGI: 48-hour incubation; for CC50: read-out: LC50, 48-hour incubation
[1] = read-out: LC50, 48-hour incubation

Nc1ccn(C2CCC(COP(=O)(O)OCC(O)COP(=O)(O)OCC3OC(n4cc(F)c(=O)[nH]c4=O)CC3O)O2)c(=O)n1 (racemic) [NSC 704533, 2′,3′-didesoxycytidylyl-(5′→1)-racglycerylyl-(3→5′)-5-fluoro-2′-desoxyuridine]
TGI (CCRF-CEM; 48-hour incubation): >1.00E − 04 mol/l
CC50 (CCRF-CEM): > 100 µM
GI50 (SF-295): 34.5 nM
TGI (SF-295): >1.00E − 04 mol/l
CC50 (SF-295): > 100 µM
GI50 (K-562): 2570 nM
TGI (K-562): >1.00E − 04 mol/l
CC50 (K-562): > 100 µM
GI50 (UACC-62): 550 nM
TGI (UACC-62): >1.00E − 04 mol/l
CC50 (UACC-62): > 100 µM
GI50 (OVCAR-8): 141 nM
TGI (OVCAR-8): >1.00E − 04 mol/l
CC50 (OVCAR-8): > 100 µM
GI50 (MALME-3M): > 100 µM
TGI (MALME-3M): >1.00E − 04 mol/l
CC50 (MALME-3M): > 100 µM
GI50 (SNB-19): 250 nM
TGI (SNB-19): >1.00E − 04 mol/l
CC50 (SNB-19): > 100 µM
GI50 (BT-549): 4.15 µM
TGI (BT-549): >1.00E − 04 mol/l
CC50 (BT-549): > 100 µM
GI50 (NCI-H522): 0.746 µM
TGI (NCI-H522): >1.00E − 04 mol/l
CC50 (NCI-H522): > 100 µM
GI50 (HOP-62): 902 nM
TGI (HOP-62): >1.00E − 04 mol/l
CC50 (HOP-62): > 100 µM
GI50 (SK-MEL-5): 689 nM
TGI (SK-MEL-5): >1.00E − 04 mol/l
CC50 (SK-MEL-5): > 100 µM
GI50 (HCT-15): 17.9 µM
TGI (HCT-15): >1.00E − 04 mol/l
GI50 (CAKI-1): 1.44 µM
TGI (CAKI-1): >1.00E − 04 mol/l
CC50 (CAKI-1): > 100 µM
GI50 (TK-10): 6.25 µM
TGI (TK-10): >1.00E − 04 mol/l
CC50 (TK-10): > 100 µM
GI50 (PC-3): 2.28 µM
TGI (PC-3): >1.00E − 04 mol/l
CC50 (PC-3): > 100 µM
GI50 (DU-145): 158 nM
TGI (DU-145): >1.00E − 04 mol/l
CC50 (DU-145): > 100 µM
GI50 (768-0): > 100000 nM
TGI (768-0): >1.00E − 04 mol/l
CC50 (768-0): > 100 µM
GI50 (COLO205): 17.7 µM
TGI (COLO205): >1.00E − 04 mol/l
CC50 (COLO205): > 100 µM
GI50 (RXF 393): 5.12 µM
TGI (RXF 393): >1.00E − 04 mol/l
CC50 (RXF 393): > 100 µM
GI50 (HL-60(TB)): 71.5 nM
TGI (HL-60(TB)): >1.00E − 04 mol/l
CC50 (HL-60(TB)): > 100 µM
GI50 (EKVX): > 100 µM
TGI (EKVX): >1.00E − 04 mol/l
GI50 (SW-620): > 100 µM
TGI (SW-620): >1.00E − 04 mol/l
CC50 (SW-620): > 100 µM
GI50 (OVCAR-3): 65.4 µM
TGI (OVCAR-3): >1.00E − 04 mol/l
CC50 (OVCAR-3): > 100 µM
GI50 (U251): 1260 nM
TGI (U251): >1.00E − 04 mol/l
CC50 (U251): > 100 µM
GI50 (MOLT-4): 104 nM
TGI (MOLT-4): >1.00E − 04 mol/l
CC50 (MOLT-4): > 100 µM
GI50 (NCI/ADR-RES; 48-hour incubation): 695 nM
TGI (NCI/ADR-RES; 48-hour incubation): >1.00E − 04 mol/l
CC50 (NCI/ADR-RES): > 100 µM
GI50 (NCI-H460): < 10 nM
TGI (NCI-H460): >1.00E − 04 mol/l
CC50 (NCI-H460): > 100 µM
GI50 (HCT-116): 374 nM
TGI (HCT-116): >1.00E − 04 mol/l
CC50 (HCT-116): > 100 µM

CCCCCCCCCCCCCCCCCCOC(COP(=O)(O)OCC1OC(n2cc(F)c(=O)[nH]c2=O)CC1O)COP(=O)(O)OCC1OC(n2ccc(N)nc2=O)C(O)C1O (racemic) [NSC 698688-A/1, arabinocytidylyl-(5′→1)-2-O-octadecyl-rac-glycerylyl-(3→5′)-5-fluoro-2′-deoxyuridine]
GI50 (CCRF-CEM; 48-hour incubation): 1280 nM
TGI (CCRF-CEM; 48-hour incubation): >1.00E − 04 mol/l
CC50 (CCRF-CEM): > 100 µM
GI50 (SF-295): 799 nM
TGI (SF-295): >1.00E − 04 mol/l
CC50 (SF-295): > 100 µM
GI50 (K-562): 3350 nM
TGI (K-562): >1.00E − 04 mol/l
CC50 (K-562): > 100 µM
GI50 (UACC-62): 1770 nM
TGI (UACC-62): >1.00E − 04 mol/l
CC50 (UACC-62): > 100 µM
GI50 (OVCAR-8): 968 nM
TGI (OVCAR-8): >1.00E − 04 mol/l
CC50 (OVCAR-8): > 100 µM
GI50 (MALME-3M): > 100 µM
TGI (MALME-3M): >1.00E − 04 mol/l
CC50 (MALME-3M): > 100 µM
GI50 (SNB-19): 919 nM
TGI (SNB-19): 2.37E − 05 mol/l
CC50 (SNB-19): 64.1 µM
GI50 (BT-549): 14.5 µM
TGI (BT-549): 8.69E − 05 mol/l
CC50 (BT-549): > 100 µM
GI50 (NCI-H522): 16.2 µM
TGI (NCI-H522): >1.00E − 04 mol/l
CC50 (NCI-H522): > 100 µM
GI50 (HOP-62): 699 nM
TGI (HOP-62): >1.00E − 04 mol/l
CC50 (HOP-62): > 100 µM
GI50 (SK-MEL-5): > 100000 nM
TGI (SK-MEL-5): >1.00E − 04 mol/l
CC50 (SK-MEL-5): > 100 µM
GI50 (HCT-15): 14.4 µM
TGI (HCT-15): >1.00E − 04 mol/l
CC50 (HCT-15; [1]): > 100 µM
GI50 (CAKI-1): 10.4 µM
TGI (CAKI-1): >1.00E − 04 mol/l
CC50 (CAKI-1): > 100 µM
GI50 (TK-10): 22.9 µM
TGI (TK-10): >1.00E − 04 mol/l
CC50 (TK-10): > 100 µM
GI50 (PC-3): 11.5 µM
TGI (PC-3): 8.64E − 05 mol/l
CC50 (PC-3): > 100 µM
GI50 (DU-145): 2680 nM
TGI (DU-145): >1.00E − 04 mol/l
CC50 (DU-145): > 100 µM
GI50 (768-0): 854 nM
TGI (768-0): 1.34E − 05 mol/l
CC50 (768-0): 44.4 µM
GI50 (COLO205): 10.5 µM
TGI (COLO205): 3.88E − 05 mol/l
CC50 (COLO205): > 100 µM
GI50 (RXF 393): 10.2 µM
TGI (RXF 393): 2.86E − 05 mol/l
CC50 (RXF 393): 80 µM
GI50 (HL-60(TB)): 3660 nM
TGI (HL-60(TB)): >1.00E − 04 mol/l
CC50 (HL-60(TB)): > 100 µM
GI50 (EKVX): > 100 µM
TGI (EKVX): >1.00E − 04 mol/l
CC50 (EKVX; [1]): > 100 µM
GI50 (SW-620): 62.8 µM
TGI (SW-620): >1.00E − 04 mol/l
CC50 (SW-620): > 100 µM
GI50 (OVCAR-3): > 100 µM
TGI (OVCAR-3): >1.00E − 04 mol/l
CC50 (OVCAR-3): > 100 µM
GI50 (U251): 3140 nM
TGI (U251): 2.48E − 05 mol/l
CC50 (U251): 73.8 µM
GI50 (MOLT-4): 467 nM
TGI (MOLT-4): >1.00E − 04 mol/l
CC50 (MOLT-4): > 100 µM
TGI (NCI/ADR-RES; 48-hour incubation): >1.00E − 04 mol/l
CC50 (NCI/ADR-RES): > 100 µM
GI50 (NCI-H460): 46.6 nM
TGI (NCI-H460): 2.79E − 05 mol/l
CC50 (NCI-H460): > 100 µM
GI50 (HCT-116): 4900 nM
TGI (HCT-116): >1.00E − 04 mol/l
CC50 (HCT-116): > 100 µM
